According to BigSolDB 2.1:

Conditions: in n-hexane

| Structure (SMILES) | solubility (mole fraction) (293.15 K) | solubility (mole fraction) (298.15 K) | solubility (mole fraction) (303.15 K) | solubility (mole fraction) (310.15 K) | solubility (mole fraction) (315.15 K) |
| --- | --- | --- | --- | --- | --- |
| FC(F)(F)c1ccc(NC2=NCCC3(CCCCC3)S2)cc1 | 0.000214 | 0.000272 | 0.000345 | 0.000424 | 0.00057 |
| CC(=O)c1ccc(NC2=NCCC3(CCCCC3)S2)cc1 | 1.56e-05 | 1.93e-05 | 2.42e-05 | 3.23e-05 | 3.95e-05 |
| Clc1ccc(NC2=NCCC3(CCCCC3)S2)cc1 | 6.09e-05 | 7.93e-05 | 0.000101 | 0.000136 | 0.00017 |
| O=C(NC1=NCCC2(CCCCC2)S1)c1ccccc1 | 0.000124 | 0.000153 | 0.000189 | 0.00025 | 0.000295 |
| c1ccc(NC2=NCCC3(CCCCC3)S2)cc1 | 0.00115 | 0.0013 | 0.00148 | 0.0019 | 0.00215 |

Next, values leading:

| solubility (mole fraction) (293.15 K) | solubility (mole fraction) (298.15 K) | solubility (mole fraction) (303.15 K) | solubility (mole fraction) (310.15 K) | solubility (mole fraction) (315.15 K) | Structure (SMILES) |
| --- | --- | --- | --- | --- | --- |
| 8.6e-06 | 1.15e-05 | 1.48e-05 | 2.15e-05 | 2.68e-05 | Cc1ccc(NC2=NCCC3(CCCCC3)S2)cc1Cl |
| 0.000514 | 0.00061 | 0.000742 | 0.000919 | 0.0011 | CC(C)c1ccc(NC2=NCCC3(CCCCC3)S2)cc1 |
| 2.46e-05 | 3.31e-05 | 4.34e-05 | 6.54e-05 | 8.27e-05 | Brc1ccc(NC2=NCCC3(CCCCC3)S2)cc1 |
| 0.000149 | 0.000182 | 0.000221 | 0.000295 | 0.000357 | COc1ccc(NC2=NCCC3(CCCCC3)S2)cc1 |
| 0.000365 | 0.000431 | 0.000508 | 0.000617 | 0.000885 | CCc1ccc(NC2=NCCC3(CCCCC3)S2)cc1 |
| 0.00028 | 0.000326 | 0.000379 | 0.000445 | 0.00052 | Cc1ccc(NC2=NCCC3(CCCCC3)S2)cc1 |
